Reference: patent publication US9309242B2, “Substituted pyrido[2,3-b]pyrazines as FGFR kinase inhibitors” (priority 2011, dated 2016)

What was measured:
[1] = target: T1, Ba/F3-FGFR1-transfected cells (Homo sapiens, UniProt P11362); assay: Ba/F3-FGFR1 (minus IL3) cellular proliferation assay, Alamar Blue; assay type: cell-based
T1 construct: BAF3-FGFR1 (MIN IL3) pIC50; other: minus IL3
How it was run: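 Ba/F3-FGFR1 cells, 20000/well, RPMI-1640 + 10% FBS + 2 mM L-Gln; compound in DMSO; 24 h, 37 °C, 5% CO2; Alamar Blue 4 h; RFU ex 540/em 590.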

FGFR1 (h) = FGFR1 (h) (Homo sapiens, UniProt P11362); assay: FGFR1 (enzymatic assay), TR-FRET; assay type: biochemical; details: read-out: FGFR 1 pIC50 (converted)
[2] = test system: Ba/F3-FGFR1-transfected cells; assay: Ba/F3-FGFR1 (plus IL3) cellular proliferation assay, counterscreen with 10 ng/ml murine IL3; assay type: cell-based; details: plus IL3 (10 ng/ml murine IL3, counterscreen); read-out: BAF3-FGFR1 (PLUS IL3) pIC50 (converted)
How it was run: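 Proliferation read-out: resazurin-based Alamar Blue fluorescence (540/590 nm) after 4 h, following 24 h compound treatment of 20000 Ba/F3-FGFR1 cells per well in 10% FBS RPMI at 37° C. IL3 counterscreen used the same protocol plus 10 ng/ml murine IL3.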

FGFR3 (h) = FGFR3 (h) (Homo sapiens, UniProt P22607); assay: FGFR3 (enzymatic assay), TR-FRET; assay type: biochemical; details: read-out: FGFR 3 pIC50 (converted)
FGFR3 (h), sequence (P22607 23-806): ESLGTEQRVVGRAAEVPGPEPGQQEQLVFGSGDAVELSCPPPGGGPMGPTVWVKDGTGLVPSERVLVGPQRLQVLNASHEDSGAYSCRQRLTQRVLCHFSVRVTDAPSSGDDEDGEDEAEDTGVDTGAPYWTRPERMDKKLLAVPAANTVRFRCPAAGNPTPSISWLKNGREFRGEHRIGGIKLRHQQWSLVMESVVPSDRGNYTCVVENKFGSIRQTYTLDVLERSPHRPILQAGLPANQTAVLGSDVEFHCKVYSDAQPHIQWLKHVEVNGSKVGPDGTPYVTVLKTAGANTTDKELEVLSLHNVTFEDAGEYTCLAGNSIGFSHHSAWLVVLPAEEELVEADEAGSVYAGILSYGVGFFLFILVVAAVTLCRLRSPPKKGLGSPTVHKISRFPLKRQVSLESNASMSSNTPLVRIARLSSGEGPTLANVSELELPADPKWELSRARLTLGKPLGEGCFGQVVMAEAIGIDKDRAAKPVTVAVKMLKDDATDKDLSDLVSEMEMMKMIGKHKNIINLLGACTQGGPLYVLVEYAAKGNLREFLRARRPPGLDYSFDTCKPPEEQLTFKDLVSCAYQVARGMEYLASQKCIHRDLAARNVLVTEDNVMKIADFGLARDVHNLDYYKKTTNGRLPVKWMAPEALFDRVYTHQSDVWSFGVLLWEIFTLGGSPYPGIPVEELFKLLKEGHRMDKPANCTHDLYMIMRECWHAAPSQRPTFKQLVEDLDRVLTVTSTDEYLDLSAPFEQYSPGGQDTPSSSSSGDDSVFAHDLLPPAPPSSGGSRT
Text: Time-Resolved Fluorescence Resonance Energy Transfer (TR-FRET) signal (ex340 nm.

[3] = target: T2, Ba/F3-FGFR3-transfected cells (Homo sapiens, UniProt P22607); assay: Ba/F3-FGFR3 (minus IL3) cellular proliferation assay, Alamar Blue; assay type: cell-based
T2 construct: BAF3-FGFR3 (MIN IL3) pIC50; other: minus IL3
T2 sequence (P22607 whole entry, change not shown): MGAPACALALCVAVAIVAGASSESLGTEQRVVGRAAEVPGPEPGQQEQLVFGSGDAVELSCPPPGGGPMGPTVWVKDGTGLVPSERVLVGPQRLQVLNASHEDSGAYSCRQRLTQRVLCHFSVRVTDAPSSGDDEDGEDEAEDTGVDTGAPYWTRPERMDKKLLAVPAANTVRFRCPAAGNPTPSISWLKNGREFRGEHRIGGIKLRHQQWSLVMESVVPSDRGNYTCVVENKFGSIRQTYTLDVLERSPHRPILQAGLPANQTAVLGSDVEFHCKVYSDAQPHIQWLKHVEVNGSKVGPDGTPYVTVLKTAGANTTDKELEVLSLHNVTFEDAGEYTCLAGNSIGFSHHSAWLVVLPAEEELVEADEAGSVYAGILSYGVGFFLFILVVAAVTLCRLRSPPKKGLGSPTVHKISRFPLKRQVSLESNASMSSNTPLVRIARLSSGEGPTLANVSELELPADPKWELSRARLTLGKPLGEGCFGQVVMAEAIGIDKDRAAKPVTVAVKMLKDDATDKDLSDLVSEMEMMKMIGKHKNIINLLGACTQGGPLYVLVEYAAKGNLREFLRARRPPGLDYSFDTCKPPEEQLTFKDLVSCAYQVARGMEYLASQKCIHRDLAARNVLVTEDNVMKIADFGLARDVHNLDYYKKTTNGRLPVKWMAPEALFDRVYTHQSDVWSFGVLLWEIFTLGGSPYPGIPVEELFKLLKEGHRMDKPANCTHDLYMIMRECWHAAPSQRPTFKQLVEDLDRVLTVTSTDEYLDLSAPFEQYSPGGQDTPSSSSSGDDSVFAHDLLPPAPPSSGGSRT
How it was run: (§1)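 FGFR3-Ba/F3, 20000 cells/well, RPMI-1640 + 10% FBS, no phenol red; cpd in DMSO; 24 h, 37° C/5% CO2. Alamar Blue 4 h, RFU ex540/em590. Counterscreen: + murine IL3 10 ng/ml.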

[4] = target: Ba/F3-FGFR4-transfected cells (Homo sapiens, UniProt P22455); assay: Ba/F3-FGFR4 cellular proliferation assay, Alamar Blue; assay type: cell-based
Ba/F3-FGFR4-transfected cells, sequence (P22455 whole entry, change not shown): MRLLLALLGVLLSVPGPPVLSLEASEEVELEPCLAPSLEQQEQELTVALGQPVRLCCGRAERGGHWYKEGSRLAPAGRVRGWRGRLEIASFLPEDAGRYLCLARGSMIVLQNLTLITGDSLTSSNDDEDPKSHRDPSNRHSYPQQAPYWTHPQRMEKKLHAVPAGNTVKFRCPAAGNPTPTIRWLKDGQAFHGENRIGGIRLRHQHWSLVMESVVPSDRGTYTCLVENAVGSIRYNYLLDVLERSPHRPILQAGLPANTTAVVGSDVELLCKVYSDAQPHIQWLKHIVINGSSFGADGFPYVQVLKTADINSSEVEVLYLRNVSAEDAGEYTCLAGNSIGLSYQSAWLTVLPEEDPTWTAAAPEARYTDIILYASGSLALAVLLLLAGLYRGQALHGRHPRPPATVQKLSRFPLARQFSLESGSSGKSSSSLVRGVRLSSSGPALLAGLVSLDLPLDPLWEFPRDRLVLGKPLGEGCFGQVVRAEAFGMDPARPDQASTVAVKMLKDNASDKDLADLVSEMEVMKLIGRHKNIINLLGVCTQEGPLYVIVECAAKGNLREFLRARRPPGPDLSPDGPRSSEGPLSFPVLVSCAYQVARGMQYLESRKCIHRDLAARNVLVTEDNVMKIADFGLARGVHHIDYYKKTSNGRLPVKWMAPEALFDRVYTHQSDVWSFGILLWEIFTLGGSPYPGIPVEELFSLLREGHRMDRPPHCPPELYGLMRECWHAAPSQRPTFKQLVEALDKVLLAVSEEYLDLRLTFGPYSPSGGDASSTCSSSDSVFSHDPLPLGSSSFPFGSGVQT
How it was run: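 Here, cells seeded at 20000 per well were treated 24 hours with compound, then given a 4-hour Alamar Blue incubation at 37° C before RFU measurement at ex. 540 nm and em. 590 nm.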

FGFR4 (h) = FGFR4 (h) (Homo sapiens, UniProt P22455); assay: FGFR4 (enzymatic assay), TR-FRET; assay type: biochemical; details: FGFR 4 pIC50, enzymatic assay
KDR (h) = KDR (h) (Homo sapiens, UniProt P35968); assay: KDR (VEGFR2) (enzymatic assay), TR-FRET; assay type: biochemical; details: read-out: VEGFR 2 (KDR) pIC50 (converted)
KDR (h), sequence (P35968 20-1356): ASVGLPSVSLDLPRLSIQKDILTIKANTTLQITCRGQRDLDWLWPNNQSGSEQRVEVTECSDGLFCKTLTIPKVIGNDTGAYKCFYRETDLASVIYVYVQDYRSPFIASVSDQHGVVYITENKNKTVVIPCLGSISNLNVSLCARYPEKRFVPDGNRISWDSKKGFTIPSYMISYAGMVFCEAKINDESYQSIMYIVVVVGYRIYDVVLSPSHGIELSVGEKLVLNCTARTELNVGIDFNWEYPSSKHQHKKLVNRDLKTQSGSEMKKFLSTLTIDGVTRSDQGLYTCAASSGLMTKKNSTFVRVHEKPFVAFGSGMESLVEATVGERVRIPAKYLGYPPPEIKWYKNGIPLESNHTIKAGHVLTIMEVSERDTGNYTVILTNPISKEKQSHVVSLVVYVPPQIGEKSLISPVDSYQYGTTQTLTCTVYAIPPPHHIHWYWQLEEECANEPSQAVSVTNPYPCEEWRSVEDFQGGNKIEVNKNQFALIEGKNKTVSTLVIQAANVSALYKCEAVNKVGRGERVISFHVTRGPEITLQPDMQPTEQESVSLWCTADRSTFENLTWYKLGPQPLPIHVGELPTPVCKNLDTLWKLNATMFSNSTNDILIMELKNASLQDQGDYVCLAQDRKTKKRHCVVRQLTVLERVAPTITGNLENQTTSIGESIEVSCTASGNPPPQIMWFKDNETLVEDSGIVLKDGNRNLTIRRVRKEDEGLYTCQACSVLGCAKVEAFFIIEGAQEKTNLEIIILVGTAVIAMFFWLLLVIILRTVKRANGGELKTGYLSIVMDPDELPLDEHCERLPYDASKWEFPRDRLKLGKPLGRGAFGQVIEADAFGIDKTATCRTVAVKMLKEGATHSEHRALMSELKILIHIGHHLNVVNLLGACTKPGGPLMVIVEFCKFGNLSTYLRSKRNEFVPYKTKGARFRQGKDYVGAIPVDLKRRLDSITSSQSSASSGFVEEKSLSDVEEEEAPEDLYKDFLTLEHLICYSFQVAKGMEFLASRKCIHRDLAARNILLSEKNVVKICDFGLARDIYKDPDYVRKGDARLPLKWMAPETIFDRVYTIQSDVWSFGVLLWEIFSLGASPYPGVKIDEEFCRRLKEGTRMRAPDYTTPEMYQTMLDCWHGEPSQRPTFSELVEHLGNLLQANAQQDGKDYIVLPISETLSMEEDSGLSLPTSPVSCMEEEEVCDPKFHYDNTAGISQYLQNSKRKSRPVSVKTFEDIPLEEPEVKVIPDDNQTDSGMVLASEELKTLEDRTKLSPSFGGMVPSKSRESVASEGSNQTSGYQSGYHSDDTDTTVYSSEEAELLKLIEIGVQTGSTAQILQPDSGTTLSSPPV
How it was run: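 Low-ATP (3 μM) TR-FRET kinase assay using 500 nM Btn-Flt3 peptide and 150 ng/ml enzyme, run 2 h at room temperature with 6 mM MnCl2 and 0.1 mM Na3VO4. Signal from Eu-anti-P-Tyr/SA-XL-665 is recorded in RFU.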

[5] = test system: Ba/F3-FGFR3-transfected cells; assay: Ba/F3-FGFR3 (plus IL3) cellular proliferation assay, counterscreen with 10 ng/ml murine IL3; assay type: cell-based; details: plus IL3 (10 ng/ml murine IL3, counterscreen); read-out: BAF3-FGFR3 (PLUS IL3) pIC50 (converted)
How it was run: as §1

T1 sequence (P11362 whole entry, change not shown): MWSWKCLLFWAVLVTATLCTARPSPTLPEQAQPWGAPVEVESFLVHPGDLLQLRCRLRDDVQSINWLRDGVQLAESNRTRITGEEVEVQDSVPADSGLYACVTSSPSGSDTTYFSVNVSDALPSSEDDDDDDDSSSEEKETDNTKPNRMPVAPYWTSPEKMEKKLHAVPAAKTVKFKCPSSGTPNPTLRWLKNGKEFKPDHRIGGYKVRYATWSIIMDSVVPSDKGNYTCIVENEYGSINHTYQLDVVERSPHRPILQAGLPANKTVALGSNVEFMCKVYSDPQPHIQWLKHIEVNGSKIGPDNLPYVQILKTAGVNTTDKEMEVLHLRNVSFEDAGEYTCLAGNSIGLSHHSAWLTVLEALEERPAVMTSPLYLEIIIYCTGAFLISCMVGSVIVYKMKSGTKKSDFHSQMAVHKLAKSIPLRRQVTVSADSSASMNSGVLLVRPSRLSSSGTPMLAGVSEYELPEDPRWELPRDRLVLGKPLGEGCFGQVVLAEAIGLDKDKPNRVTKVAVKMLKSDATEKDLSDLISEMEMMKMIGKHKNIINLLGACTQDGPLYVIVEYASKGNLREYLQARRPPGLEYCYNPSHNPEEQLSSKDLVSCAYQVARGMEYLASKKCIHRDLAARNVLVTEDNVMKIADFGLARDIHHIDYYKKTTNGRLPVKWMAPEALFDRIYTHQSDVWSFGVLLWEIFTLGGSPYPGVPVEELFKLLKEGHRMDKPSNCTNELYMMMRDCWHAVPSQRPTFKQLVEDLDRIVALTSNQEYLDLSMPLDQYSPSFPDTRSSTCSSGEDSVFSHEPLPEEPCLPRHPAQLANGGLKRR

Row | SMILES | BAF3-FGFR1 (MIN IL3) pIC50 [1] | IC50 (FGFR1 (h)) | IC50 [2] | IC50 (FGFR3 (h)) | BAF3-FGFR3 (MIN IL3) pIC50 [3] | BAF3-FGFR4 pIC50 [4] | IC50 (FGFR4 (h)) | IC50 (KDR (h)) | IC50 [5]
1 | COc1cc(OC)c(F)c(N(Cc2ncc[nH]2)c2ccc3ncc(N4CCOCC4)nc3n2)c1F [Compound 215] | 8.25 | 0.741 nM | > 10000 nM | ~1.26 nM | 8.18 | 7.54 | 2.14 nM | 52.5 nM | > 10000 nM
2 | COc1cc(OC)cc(N(Cc2nnco2)c2ccc3ncc(-c4cnn(C)c4)nc3n2)c1 [Compound 217] | 6.59 | 7.94 nM | > 10000 nM | 3.89 nM | ~6.68 | 6.03 | 23.4 nM | 162 nM | > 10000 nM
3 | COc1cc(OC)c(F)c(N(Cc2nc(OC)cc(OC)n2)c2ccc3ncc(-c4cnn(C)c4)nc3n2)c1 [Compound 220] | 6.32 | 4.17 nM | > 10000 nM | 9.33 nM | 5.91 | 5.83 | 29.5 nM | 50.1 nM | > 10000 nM
4 | COc1cc(OC)c(F)c(N(CCNC2COC2)c2ccc3ncc(-c4cnn(C)c4)nc3n2)c1 [Compound 221] | 7.53 | 1.51 nM | > 10000 nM | 0.891 nM | ~7.67 | 6.98 | 6.61 nM | ~29.5 nM | > 10000 nM
5 | COc1cc(OC)c(F)c(N(CCN(C2COC2)C2COC2)c2ccc3ncc(-c4cnn(C)c4)nc3n2)c1 [Compound 222] | 7.12 | 2.24 nM | > 10000 nM | 3.89 nM | ~7.19 | 6.55 | 15.5 nM | 40.7 nM | > 10000 nM
6 | CCn1cc(-c2cnc3ccc(N(Cc4ncc[nH]4)c4cc(OC)cc(OC)c4F)nc3n2)cn1 [Compound 223] | 8.85 | 0.55 nM | > 10000 nM | 1.23 nM | ~8.58 | 7.95 | 1.29 nM | 7.08 nM | > 10000 nM
7 | COc1cc(OC)c(F)c(N(CC(=O)c2cnn(C)c2)c2ccc3ncc(-c4cnn(C)c4)nc3n2)c1 [Compound 225] | 6.41 | 6.61 nM | > 10000 nM | 7.76 nM | 6.29 | 5.96 | 36.3 nM | 200 nM | > 10000 nM
8 | COc1cc(OC)cc(N(Cc2ncc[nH]2)c2ccc3ncc(-c4cnn(C5CCNCC5)c4)nc3n2)c1 [Compound 227] | 7.73 | 0.562 nM | > 10000 nM | 0.891 nM | 7.63 | 6.91 | 1.82 nM | 12 nM | > 10000 nM
9 | COc1cc(OC)cc(N(Cc2n[nH]c(=O)o2)c2ccc3ncc(-c4cnn(C)c4)nc3n2)c1 [Compound 229] | 5.97 | 4.9 nM | > 10000 nM | 4.07 nM | 6.05 | 5.45 | 22.4 nM | 182 nM | > 10000 nM
10 | COc1cc(OC)c(F)c(N(CC(=O)NCCO)c2ccc3ncc(-c4cnn(C)c4)nc3n2)c1 [Compound 230] | 6.09 | 7.59 nM | > 10000 nM | 7.94 nM | 6.18 | 5.73 | 42.7 nM | 363 nM | > 10000 nM
11 | COc1cc(OC)c(F)c(N(CC(=O)O)c2ccc3ncc(-c4cnn(C)c4)nc3n2)c1 [Compound 231] | 5.27 | 4.79 nM | > 10000 nM | 3.98 nM | 5.75 | 5.02 | 17.8 nM | 200 nM | > 10000 nM
12 | COc1cc(OC)c(F)c(N(Cc2nc(CO)c[nH]2)c2ccc3ncc(-c4cnn(C)c4)nc3n2)c1 [Compound 232] | 7.45 | 0.813 nM | > 10000 nM | 1.29 nM | 7.81 | 6.96 | 1.86 nM | 22.4 nM | > 10000 nM
13 | COc1cc(OC)c(F)c(N(CCO)c2ccc3ncc(-c4cnn(CCO)c4)nc3n2)c1 [Compound 233] | 7.49 | 0.759 nM | > 10000 nM | 0.776 nM | 7.40 | 6.91 | 2.88 nM | 25.7 nM | > 10000 nM
14 | COc1cc(OC)c(F)c(N(Cc2nc(Br)c[nH]2)c2ccc3ncc(-c4cnn(C)c4)nc3n2)c1 [Compound 238] | ~8.32 | 0.479 nM | > 10000 nM | 1.17 nM | ~8.45 | 8.06 | 1.12 nM | 11.2 nM | > 10000 nM
15 | COc1cc(OC)c(F)c(N(Cc2ncc[nH]2)c2ccc3ncc(-c4cnn(CC(C)(C)O)c4)nc3n2)c1 [Compound 240] | 8.57 | 0.912 nM | > 10000 nM | 1.82 nM | ~8.52 | 7.87 | 1.91 nM | 15.5 nM | > 10000 nM
16 | COc1cc(OC)c(F)c(N(CCNC(C)=O)c2ccc3ncc(-c4cnn(C)c4)nc3n2)c1 [Compound 242] | 7.35 | 1.17 nM | > 10000 nM | 1.86 nM | ~8.11 | 7.22 | 2.24 nM | 28.2 nM | > 10000 nM
17 | COc1cc(/N=c2\ccc3ncc(-c4cnn(C)c4)nc3n2CC2CCC(=O)N2)cc(OC)c1 (stereo not drawn) [Compound 248] | 6.70 | 5.13 nM | > 10000 nM | 1.82 nM | 6.67 | 6.25 | 8.13 nM | 20 nM | > 10000 nM
18 | COc1cc(OC)c(F)c(N(Cc2n[nH]c(=O)o2)c2ccc3ncc(-c4cnn(C)c4)nc3n2)c1 [Compound 284] | 6.37 | 1.58 nM | > 10000 nM | 1.05 nM | 6.42 | 6.01 | 5.5 nM | 63.1 nM | > 10000 nM
